The text below walks through data of patent US20060281798A1, “Methods of using thiazolidinedithione derivatives” (QLT Inc., priority 2002, published 2006).

What all share (assay type): cell-based
Assay [1] deals with PC3 cells, PTPN12 mouse embryonic fibroblasts (MEFs). Briefly: Cell migration in a Boyden chamber. The following applies: PC-3, cell line of Table 2 not stated. The text has this: A range of cell lines are used in this assay, particularly the prostate cancer cell line PC3 and PTPN12 mouse embryonic fibroblasts (MEFs). The role of PTPN12 in migration was established based on the observations of PTPN12 negative MEFs. Cell adhesion and migration are dynamic biological activities involving the assembly and disassembly of a large number of extracellular and intracellular molecules, for example, actin, which are regulated in turn by protein phosphorylation. […] Migration is reduced in PTPN12 knock-out MEFs. By extension, a PTPN12 inhibitor should reduce cell migration in a Boyden chamber. Therefore, as a readout for PTPN12 activity, the following assay is designed to analyze cell migration in Boyden chambers. […]
For tumour cell lines, stock cells (i.e. PC3 cells) are grown to 50-70% confluency in T175 flasks. […] Fluorescence of migrated cells is read in a Fluoroskan Ascent FL™ (or equivalent) with bottom reading at excitation/emission wavelength of 485/538 nm. Only those cells that have migrated through the pores of the FluoroBlok™ membrane will be read. […]
Data is expressed as fluorescence unit (FU) from the sum of middle 25 areas per 24-well or as percentage of migration inhibition by following formula: % of invasion inhibition=100−FU of compound treated cell invasion/FU of DMSO treated cell invasion times 100. […]

A further assay has as its system H460 Cells. The assay can be described thus: Cell proliferation (3H-thymidine incorporation), H460. The following applies: Homo sapiens, NCI-H460, 24 hours. The text has this: (§1) This procedure (Jelinkova, R. B. et al., “Antiproliferative effect of a lectin- and anti-Thy-1.2 antibody-targeted HPMA copolymer-bound doxorubicin on primary and metastatic human colorectal carcinoma and on human colorectal carcinoma transfected with the mouse Thy-1.2 gene”, Bioconjug. Chem. (2000, September-October), Vol. 11, No. 5, pp. 664-73) is used to assess the effect compounds have on various cell lines with respect to proliferation. The rate of anchorage-independent growth of various tumor cells is quantified by measuring the amount of free isotopic thymidine that has been incorporated into the cells over a period of time. The effect of any compound to inhibit the proliferation of various tumor cells could be used as an indication of its ability to prevent disease progression in cancer.
(§2) Cultured tumour cells are harvested cells as per normal procedures: i.e. trypsinize, centrifuge and count cells. […]
(§3) After incubation, plates are observed under the microscope for obvious cell death, abnormal cell shape, crystal formation of the compound, etc. […] Finally, 100 μL of scintillation fluid is added to each well and the plates are counted in a Wallac 1450 Microbeta™ counter according to user manual instructions.
(§4) The amount of inhibition is determined by the following formula: % inhibition=100−[(AVG treatment−AVG positive control)/[…]]
For orientation: Dividing cells build labelled thymidine or BrdU into new DNA.

In another assay the test system is PC3 Cells. The assay can be described thus: Cell proliferation (3H-thymidine incorporation), PC3. To be noted: Homo sapiens, PC-3, 24 hours.
From the text: as §1, §2, §3, §4

In general, inhibition refers to the drop in the measured response relative to a control, in per cent. High values mean a response far below the control, low ones a response near the control. In assay [1], `S=C1NC(=S)C(=Cc2ccc(-c3ccc(Br)cc3)o2)S1` [5-[5-(4-Bromophenyl)-furan-2-ylmethylene]-thiazolidine-2,4-dithione] came in with an inhibition at 25 µM of 65%. For the same compound, the inhibition at 50 µM turned out to be 89% in the assay on H460 Cells and 15% with PC3 Cells.
